The values below come from the supplement of paper PMC12613149.

Each structure is given as a SMILES string.

A short description of series [1]: collision cross section (TIMS, N2 drift gas) of the primary ion; higher = larger gas-phase ion size.
The nature of series [2]: reversed-phase LC retention time (C18, 15 min MeOH gradient); higher = more hydrophobic / later elution.
The mark [3] stands for this setting: ionization mode: ESI+, ion species: [M+H]+.
Setting [4] is: ionization mode: ESI-, ion species: [M-H]-.

Compound `Cc1ccc(NC(=O)N(C)C)cc1Cl` [Chlorotoluron] registered a collision cross section in series [1] (setting [3]) of 147.58 Å². In series [2] (setting [3]), the “reversed-phase LC retention time” value is 12.5 min.
With `CCC(=O)O[C@]1(C(=O)CCl)[C@@H](C)C[C@H]2[C@@H]3CCC4=CC(=O)C=C[C@]4(C)[C@@]3(F)[C@@H](O)C[C@@]21C` [Clobetasol propionate], the collision cross section turned out to be 207.98 Å² in series [1] (setting [3]) and 210.25 Å² in series [1] (setting [4]). Further, the “reversed-phase LC retention time” value in series [2] (setting [3]) amounted to 15.2 min; in series [2] (setting [4]), 15.6 min.
In turn, `O=S(=O)(O)C(F)(F)C(F)(F)C(F)(F)C(F)(F)C(F)(F)C(F)(F)C(F)(F)C(F)(F)F` [Perfluorooctanesulfonic acid] returned a collision cross section in series [1] (setting [4]) of 169.04 Å². In addition, the “reversed-phase LC retention time” value in series [2] (setting [4]) is 15.4 min.
Turning to `Nc1cnn(-c2ccccc2)c(=O)c1Cl` [4-Amino-5-chloro-1-phenyl-6-pyridazone], the collision cross section is 143.41 Å² in series [1] (setting [3]) and 141.68 Å² in series [1] (setting [4]). The “reversed-phase LC retention time” value in series [2] (setting [3]) was found to be 9.16 min; in series [2] (setting [4]), 9.26 min.
On to `CCOP(=S)(OCC)Oc1cc(C)nc(C(C)C)n1` [Diazinon], for which the collision cross section in series [1] (setting [3]) turned out to be 172.11 Å². The “reversed-phase LC retention time” value in series [2] (setting [3]) came to 15.6 min.
In series [1] (setting [3]), `O=C1CCCCCCCCCCCN1` [Dodecane-12-lactam] registered a collision cross section of 148.39 Å². The “reversed-phase LC retention time” value in series [2] (setting [3]) worked out at 13.9 min.
The compound `Oc1ccc(C(c2ccccc2)(c2ccccc2)c2ccc(O)cc2)cc1` [Bisphenol BP] displayed a collision cross section in series [1] (setting [4]) of 196.58 Å². Also, in series [2] (setting [4]), the “reversed-phase LC retention time” value is 16 min.
Consider `O=c1[nH]c2ccccc2s1` [2-Hydroxybenzothiazole], for which the collision cross section in series [1] (setting [3]) is 126.56 Å²; in series [1] (setting [4]) it was 122.14 Å². Further, the “reversed-phase LC retention time” value was 10.5 min in series [2] (setting [3]) and 10.6 min in series [2] (setting [4]).
The compound `NC(=O)N1c2ccccc2CC(O)c2ccccc21` (centres undefined) [10,11-Dihydro-10-hydroxycarbamazepine] had a collision cross section in series [1] (setting [3]) of 154.89 Å². Besides, the “reversed-phase LC retention time” value in series [2] (setting [3]) is 10.7 min.
`C[C@]12C=CC(=O)C=C1CC[C@@H]1[C@@H]2[C@@H](O)C[C@@]2(C)[C@H]1CC[C@]2(O)C(=O)CO` [Prednisolone]: in series [1] (setting [4]), the collision cross section turned out to be 182.17 Å². Further, the “reversed-phase LC retention time” value in series [2] (setting [4]) was determined as 11.9 min.
Regarding `CCCCC(CC)COC(=O)CC(C(=O)OCC(CC)CCCC)S(=O)(=O)O` (centres undefined) [Dioctylsulfosuccinate], the collision cross section in series [1] (setting [3]) was 222.09 Å²; in series [1] (setting [4]), 208.23 Å². The “reversed-phase LC retention time” value in series [2] (setting [3]) and in series [2] (setting [4]) was 17.1 min throughout.
Turning to `O=C(O)C(F)(F)C(F)(F)C(F)(F)C(F)(F)C(F)(F)C(F)(F)C(F)(F)C(F)(F)C(F)(F)C(F)(F)C(F)(F)F` [Perfluorododecanoic acid], the collision cross section in series [1] (setting [4]) is 191.62 Å². Besides, the “reversed-phase LC retention time” value in series [2] (setting [4]) is 17 min.
In series [1] (setting [3]), `CN(C)c1ccc(C(=O)c2ccc(N(C)C)cc2)cc1` [Michler's ketone] had a collision cross section of 166.78 Å². Also, the “reversed-phase LC retention time” value in series [2] (setting [3]) is 14.9 min.
Regarding `Cc1nnc(-c2ccccc2)c(=O)n1N` [Metamitron], the collision cross section in series [1] (setting [3]) came to 143.85 Å². For the same compound, in series [2] (setting [3]), the “reversed-phase LC retention time” value came to 8.87 min.
The corresponding values for `Cc1c(NC=O)c(=O)n(-c2ccccc2)n1C` [N-Formyl-4-aminoantipyrine] are 149.16 Å² and 7.74 min.
The corresponding values for `c1ccc2sc(N3CCOCC3)nc2c1` [2(4-morpholinyl)benzothiazole] are 145.3 Å² and 12.6 min.
Regarding `CC(=O)O[C@]1(C(C)=O)CC[C@H]2[C@@H]3C[C@H](C)C4=CC(=O)CC[C@]4(C)[C@H]3CC[C@@]21C` [Medroxyprogesteroneacetate], in series [1] (setting [3]), the collision cross section is on record as 199.59 Å². In addition, the “reversed-phase LC retention time” value in series [2] (setting [3]) was 15.4 min.
In series [1] (setting [4]), `Oc1ccc(Cc2ccc(O)cc2)cc1` [Bisphenol F] returned a collision cross section of 152.1 Å². Further, the “reversed-phase LC retention time” value in series [2] (setting [4]) was found to be 11.9 min.
For `CC(C)(C)c1ccc(CSc2cnn(C(C)(C)C)c(=O)c2Cl)cc1` [Pyridaben], the collision cross section in series [1] (setting [3]) worked out at 193.46 Å². For the same compound, the “reversed-phase LC retention time” value in series [2] (setting [3]) came to 17.9 min.
`COc1cc(C[C@H]2COC(=O)[C@@H]2Cc2ccc(O)c(OC)c2)ccc1O` [Matairesinol]: the figures for the collision cross section in series [1] (setting [3]) and in series [1] (setting [4]) were 191.29 Å² and 176.96 Å², respectively. Besides, the “reversed-phase LC retention time” value is 11.4 min in series [2] (setting [3]) and 11.6 min in series [2] (setting [4]).
With `COc1cc2ccc(=O)oc2c(OC)c1OC` [Dimethylfraxetin], in series [1] (setting [3]), the collision cross section is 147.68 Å². Also, the “reversed-phase LC retention time” value in series [2] (setting [3]) was 10.6 min.
Taken in the same sequence, the figures for `COCC(=O)N(c1c(C)cccc1C)C(C)C(=O)OC` (centres undefined) [Metalaxyl] were 160.45 Å² and 12.7 min.
`CC1(C)CC(OC(=O)CCCCCCCCC(=O)OC2CC(C)(C)NC(C)(C)C2)CC(C)(C)N1` [Bis(2,2,6,6-tetramethyl-4-piperidyl)sebacate] came in with a collision cross section in series [1] (setting [3]) of 225.08 Å². Further, the “reversed-phase LC retention time” value in series [2] (setting [3]) came to 11.8 min.
Turning to `CCNc1nc(NCC)nc(SC)n1` [Simetryn], in series [1] (setting [3]), the collision cross section is given as 149.02 Å². Moreover, the “reversed-phase LC retention time” value in series [2] (setting [3]) was determined as 11.6 min.
In the case of `C[C@H]1C[C@H]2[C@@H]3CCC4=CC(=O)C=C[C@]4(C)[C@@]3(Cl)[C@@H](O)C[C@]2(C)[C@@]1(O)C(=O)CO` [Beclomethasone], the collision cross section in series [1] (setting [3]) worked out at 192.43 Å²; in series [1] (setting [4]) it was 194.28 Å². For the same compound, the “reversed-phase LC retention time” value in series [2] (setting [3]) came out at 13.3 min; in series [2] (setting [4]) it was 13.6 min.
`O=C(NC(CO)C(O)c1ccc([N+](=O)[O-])cc1)C(Cl)Cl` (centres undefined) [Chloramphenicol] yielded a collision cross section in series [1] (setting [4]) of 165.75 Å². For the same compound, in series [2] (setting [4]), the “reversed-phase LC retention time” value worked out at 9.83 min.
